The values that follow come from patent publication US20220235047A1, “A MEDICAMENT FOR TREATING MYCOBACTERIAL INFECTION CHARACTERIZED BY COMBINING A CYTOCHROME bc1 INHIBITOR WITH CLARITHROMYCIN OR AZITHROMYCIN AND CLOFAZIMINE” (priority 2019, published 2022).

The subject of data set [1] is Mycobacterium avium ATCC700898. The data set can be described thus: Test3: mouse lung infection model, CFU in lungs after 2 weeks of treatment. The class given is in vivo. The conditions noted are these: day 15, AZM 10 mg/kg, RFP 10 mg/kg, ETB 100 mg/kg, CFZ 20 mg/kg, Q203 5 mg/kg. From the text:
(§1) Almost protocol was the same as the protocol described in Test1 above.

Data set [2] deals with cytochrome P-450 (CYP) 3A. Particulars: cited from earlier work.
Data set [3] deals with Mycobacterium avium ATCC700898. The data set can be described thus: Test1: mouse lung infection model, CFU in lungs after 2 weeks of treatment.
Procedure: There were 9 study groups and 4 mice per group
All treatments were evaluated on Mycobacterium avium ATCC700898.
All formulations prepared in 20% Tween20, 80% aq. (20% HP-ß-CD and 0. 6% HPMC, pH3).
All formulations were solutions and prepared every day.
Time Schedule, after mice were infected.
The mice were infected with Mycobacterium avium strain.
When 0.07 mL of this dilution is injected, each mouse receives 10^6 bacteria.
36 female 8-weeks old BALB/c mice, Charles River, were inoculated intranasally with 0.07 mL of a bacterial suspension containing ±10^6 colony forming units (CFU). […]
The effectiveness of treatments was assessed by counting the numbers of colony-forming-units (CFU) in the lungs. • 1.8 mL Mueller Hinton Broth (MHB) was added to each homogenization tube containing lung. • Lungs were homogenized, and four 10-fold serial dilutions were made in MHB. • From each individual lung, 100 μL of the undiluted suspension and four serial 10-fold dilutions, were plated on 7H10 agar plates. • CFU's were counted after incubation at 35° C. for 2 weeks. • The bactericidal effect of the treatment was defined as a significant decrease of the mean number of CFU in the treated group compared to pre-treatment value.
The subject of data set [4] is Mycobacterium avium ATCC700898. As to the kind of experiment: Test2: mouse lung infection model, CFU in lungs after 2 weeks of treatment. The class given is in vivo. Particulars: day 15, CAM 200 mg/kg.
Excerpt: There were 6 study groups and 4 mice per group
as §1

Data set [5] has as its system M. intracellulare. The conditions noted are these: in vitro, majority of M. intracellulare isolates; cited from earlier work.
The subject of data set [6] is M. avium. Particulars: in vitro; cited from earlier work.
The subject of data set [7] is MAC. The conditions noted are these: pulmonary disease patients infected by MAC; relapse still occurred; cited from earlier work.
Data set [8] concerns the target cytochrome bc1 (Mycobacterium tuberculosis, UniProt P9WP37). The conditions noted are these: described in WO2017/049321 (HT-21) and WO2011/113606 (Q203); cited from earlier work.
Data set [9] concerns TB. Particulars: in vitro and in vivo mouse model; cited from earlier work.

Sequence of cytochrome bc1 (P9WP37 whole entry, looked up): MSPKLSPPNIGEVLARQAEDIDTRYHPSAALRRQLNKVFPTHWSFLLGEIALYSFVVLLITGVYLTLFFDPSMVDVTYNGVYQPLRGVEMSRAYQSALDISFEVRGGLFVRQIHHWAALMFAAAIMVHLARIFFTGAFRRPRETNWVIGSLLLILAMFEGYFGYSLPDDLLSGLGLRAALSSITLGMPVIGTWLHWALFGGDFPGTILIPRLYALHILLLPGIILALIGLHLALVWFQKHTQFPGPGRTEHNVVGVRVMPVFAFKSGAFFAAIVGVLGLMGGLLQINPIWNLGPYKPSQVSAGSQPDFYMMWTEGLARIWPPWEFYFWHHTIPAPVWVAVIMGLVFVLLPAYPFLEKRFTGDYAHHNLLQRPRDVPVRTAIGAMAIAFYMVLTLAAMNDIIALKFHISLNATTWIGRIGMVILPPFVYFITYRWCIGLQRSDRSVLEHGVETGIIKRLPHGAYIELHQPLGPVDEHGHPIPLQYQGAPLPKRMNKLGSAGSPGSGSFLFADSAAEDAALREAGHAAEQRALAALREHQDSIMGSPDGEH

Regarding `CC[C@H]1OC(=O)[C@H](C)[C@@H](O[C@H]2C[C@@](C)(OC)[C@@H](O)[C@H](C)O2)[C@H](C)[C@@H](O[C@@H]2O[C@H](C)C[C@H](N(C)C)[C@H]2O)[C@](C)(O)C[C@@H](C)CN(C)[C@H](C)[C@@H](O)[C@]1(C)O` [AZM, Azithromycin], in data set [1], the “Mean Log10 (CFU in lungs)” value is 6.19. For the same compound, the “inhibition of CYP3A” value in data set [2] is listed as “does not inhibit”.
As to `CC[C@H]1OC(=O)[C@H](C)[C@@H](O[C@H]2C[C@@](C)(OC)[C@@H](O)[C@H](C)O2)[C@H](C)[C@@H](O[C@@H]2O[C@H](C)C[C@H](N(C)C)[C@H]2O)[C@](C)(OC)C[C@@H](C)C(=O)[C@H](C)[C@@H](O)[C@]1(C)O` [CAM, Clarithromycin], the “Mean Log10 (CFU in lungs)” value was 3.98 in [3] (BALB/c mice, day 15, oral once daily, 10 doses, CAM 200 mg/kg, RFP 20 mg/kg, ETB 100 mg/kg, CFZ 20 mg/kg) and 4.85 in data set [4] (CFZ 20 mg/kg, HT-21 5 mg/kg or Q203 5 mg/kg). Moreover, the “drop in mean log 10 CFU from Control 2” value in data set [4] worked out at 1.0. Besides, the “inhibition of CYP3A” value in [2] was “inhibits”.
By MIC is commonly meant the least concentration at which growth counts as inhibited. As to `CC(C)/N=c1\cc2n(-c3ccc(Cl)cc3)c3ccccc3nc-2cc1Nc1ccc(Cl)cc1` [CFZ, Clofazimine], the MIC in data set [5] is below 1 µg/mL; in data set [6] it was 1 to 4 µg/mL. Also, in data set [7], the “proportion of patients converted to negative cultures” value is “significantly greater proportion”.
As for `Cc1ccn2c(C(=O)NCc3ccc(N4CCCN(c5ccc(C(F)(F)F)cc5)CC4)c(F)c3)c(C)nc2c1` [HT-21], the “efficacy (CFU in lungs), in words” value in data set [3] (HT-21 200 mg/kg added to clarithromycin+clofazimine, cut off 2.00) is “the effect reached plateau”. Also, in [8], the “cytochrome bc1 inhibitory activity” value is given as “excellent cytochrome bc1 inhibitory activity”.
As to `CCc1nc2cc(C)ccn2c1C(=O)NCc1ccc(N2CCC(c3ccc(OC(F)(F)F)cc3)CC2)cc1` [Q203], the “cytochrome bc1 inhibitory activity” value in [8] is recorded as “excellent cytochrome bc1 inhibitory activity”. Besides, in data set [9], the “growth of TB” value is recorded as “inhibited the growth of TB”.
